The values below are quoted from earlier work in article PMC10532012, “A Putative Role of Vasopressin/Oxytocin-Type Neuropeptide in Osmoregulation and Feeding Inhibition of Apostichopus japonicus” (International Journal of Molecular Sciences, 2023).

Entries after “also recorded” stand apart in the source; their conditions may differ. Where no end group is shown, it is not given here.

For one data set, the system named is mammals. An excerpt:
The conservative functions of VP/OT-type neuropeptide in vertebrates have been extensively studied, mainly including water homeostasis, reproduction and social behavior [43, 44, 45]. However, few functional studies of VP/OT-type neuropeptide in deuterostomian invertebrates especially in echinoderms have been reported. Related physiological studies of echinoderm VP/OT-type neu ...

In another data set the test system is C. elegans. The procedure: (§1) Based on the genes/transcripts encoding VP/OT-type neuropeptide signaling identified from protostomian and deuterostomian animals, the physiological effects of VP/OT superfamily signaling were analyzed and compared. In protostomes, multiple physiological functions of VP/OT-type neuropeptides in different Phylum have been characterized.

The test system of a further data set is longitudinal muscle. The note with it: 10^−7–10^−5 M; positive control. The procedure: To investigate the function of holotocin, longitudinal muscle, intestine and tentacle from A. japonicus were prepared. […] Firstly, the longitudinal muscle and intestine of A. japonicus were dissected and cut into strips approximately 20 mm in length. Then, these preparations were put into a 50 mL glass organ bath containing 2 ...

A further data set concerns rectum. More on the design: method as in PMID 12972329.
A further data set relates to Lasius neglectus. The note with it: inotocin signaling. The procedure:
as §1

With “CYFQNCPRG-NH2 (disulfide) [VP, neurohypophyseal hormone …-NH2]”, in the data set with mammals, the antidiuretic activity result is on record as “had antidiuretic activity” and the blood pressure entry was “increased blood pressure”. Regarding “CYIQNCPLG-NH2 (disulfide) [OT, neurohypophyseal hormone …-NH2]”, in the data set with mammals, the lactation result is recorded as “stimulated lactation” and the uterine contraction entry is on record as “caused the uterine contraction”. With “Nematocin: VP/OT-type neuropeptide in nematode C. elegans (CFLNSCPYRRY; ends and bridges not checked; cysteine pairing not given here; UniProt Q4R128 20-30, looked up)”, the associative learning entry with C. elegans is recorded as “neuro-modulatory role in associative learning”.

As to “NGIWYamide [neuropeptide used as positive control for contraction of longitudinal muscles]”, in the data set with longitudinal muscle, the “contraction of longitudinal muscle, NGIWYamide” value is on record as “reported to cause contraction of longitudinal muscle preparations; also recorded: confirmed to cause contraction of longitudinal muscles”.

Turning to octopressin, the contraction of rectum entry in the data set on rectum is “tonic contraction”. On to inotocin, for which the energy regulation entry with Lasius neglectus is given as “of vital importance in energy regulation”.
